Experimental data from patent US11498920B2, “4-(1H-imidazol-5-yl)-1H-pyrrolo[2, 3-b] pyridines for use in the treatment of leukaemias, lymphomas and solid tumors” (MASARYKOVA UNIVERZITA, priority 2018, dated 2022).

Legend:
primary CLL cells = assay: Cytotoxicity, TMRE flow cytometry viability, primary CLL cells (Example II.1); assay type: cell-based; settings: Homo sapiens, CLL cell, 6 hours, TMRE positive cells normalized to control, ratio to PF670462, <1 = higher cytotoxicity than PF670462, read-out: Viability of cells, Compound of formula I (100 μM), relative to PF670462 (100 μM), CLL primary cells
Procedure: (§1) The leukemia and lymphoma-derived cell lines [MEC-1 cell line (derived from chronic lymphocytic leukemia—CLL), Nalm-16 (acute lymphocytic leukemia—ALL), K562 (chronic myeloid leukemia—CML), HL-60 (acute myeloid leukemia—AML), Maver-1 and Mino (mantle cell lymphoma—MCL), BL-41 (Burkitt lymphoma—BL), WSU-NHL (follicular lymphoma—FL), SUDHL (diffuse large B-cell lymphoma—DLBCL)], primary CLL cells and nonmalignant control primary cells were cultured in suspension in flasks under the following conditions: RPMI 1640 medium (Hyclone) supplemented with 10% fetal bovine serum (FBS, Gibco) and 1% penicillin/streptomycin (Life Technologies), 37° C., 5% CO2 and 95% relative humidity, with optimal culture cell density 5×10^6 cells/mL in case of primary cells and 0.5-1×10^6 cells/mL in case of cell lines. The adherent cell lines [A375 (derived from malignant melanoma), MDA-MB-231 and MCF-7 (breast cancer), MIA-PA-CA and PANC1 (pancreatic cancer), PC3 (prostate cancer), OVCAR4 (ovarian cancer) and HEPG2 (hepatocellular carcinoma)] were cultured on plates under the same conditions using RPMI1640 or DMEM medium (Gibco) according to instructions provided by the distributor (DSMZ/ATCC).
(§2) Cytotoxicity of compounds of formula I was tested in two models representative for leukemia (primary CLL cells) and lymphoma (Maver-1 cells). The primary CLL cells and Maver-1 cells (MCL-derived) were incubated with inhibitors at 100 μM concentration or corresponding amount of solvent (DMSO, Sigma Aldrich) as 0.1×10^6 cells/200 μl per well in a 96-well plate. Experiments were performed in technical duplicates. Viability of cells was assessed after 6 hours in case of primary CLL cells and after 24 hours in case of Maver-1 cells.
(§3) Apoptosis-induced reduction of mitochondrial potential is detected as lower TMRE fluorescence. […] Relative values are presented, showing ratio to the effect of PF670462 (as the closest prior art). Relative value <1 indicates a higher cytotoxicity than PF670462.

[1] = tested on: Maver-1 cells (mantle cell lymphoma); assay: Cytotoxicity, TMRE flow cytometry viability, Maver-1 cells (Example II.1); assay type: cell-based; settings: Homo sapiens, Maver1, 24 hours, TMRE positive cells normalized to control, ratio to PF670462, <1 = higher cytotoxicity than PF670462, read-out: Viability of cells, Compound of formula I (100 μM), relative to PF670462 (100 μM), Maver-1 cells (mantle cell lymphoma)
Procedure: as §1, §2, §3

`Fc1ccc(-c2ncn(C3CCC(F)(F)CC3)c2-c2ccnc3[nH]ccc23)cc1` [Preparative Example 35, 4-(1-(4,4-difluorocyclohexyl)-4-(4-fluorophenyl)-1H-imidazol-5-yl)-1H-pyrrolo[2,3-b]pyridine] showed a viability at 100 µM (primary CLL cells) of 60% and a viability at 100 µM [1] of 44%.

Compound `Fc1ccc(-c2ncn([C@H]3CC[C@H](C(F)(F)F)CC3)c2-c2ccnc3[nH]ccc23)cc1` [Preparative Example 36] has a viability at 100 µM (primary CLL cells) of 68% and a viability at 100 µM [1] of 1%.

In the case of `c1cc(-c2c(-c3ccsc3)ncn2C2CCCCC2)c2cc[nH]c2n1` [Preparative Example 42, 4-(1-cyclohexyl-4-(thiophen-3-yl)-1H-imidazol-5-yl)-1H-pyrrolo[2,3-b]pyridine], the viability at 100 µM (primary CLL cells) is reported as 76% and the viability at 100 µM [1] is reported as 12%.

`Fc1ccc(-c2ncn(-c3cccnc3)c2-c2ccnc3[nH]ccc23)cc1` [Preparative Example 50, 4-(4-(4-fluorophenyl)-1-(pyridin-3-yl)-1H-imidazol-5-yl)-1H-pyrrolo[2,3-b]pyridine] was tested, and the viability at 100 µM (primary CLL cells) was 63% and the viability at 100 µM [1] was 48%.

Work on `OCc1cc2c(-c3c(-c4ccc(F)cc4)ncn3C3CCCCC3)ccnc2[nH]1` [Preparative Example 56, (4-(1-cyclohexyl-4-(4-fluorophenyl)-1H-imidazol-5-yl)-1H-pyrrolo[2,3-b]pyridin-2-yl)methanol] yielded a viability at 100 µM (primary CLL cells) of 67% and a viability at 100 µM [1] of 79%.

`COCc1cc2c(-c3c(-c4ccc(F)cc4)ncn3C3CCCCC3)ccnc2[nH]1` [Preparative Example 60, 4-(1-cyclohexyl-4-(4-fluorophenyl)-1H-imidazol-5-yl)-2-(methoxymethyl)-1H-pyrrolo[2,3-b]pyridine] showed a viability at 100 µM (primary CLL cells) of 93% and a viability at 100 µM [1] of 84%.

In the case of `CS(=O)(=O)N1CCC(n2cnc(-c3ccc(F)cc3)c2-c2ccnc3[nH]ccc23)CC1` [Preparative Example 69], the viability at 100 µM (primary CLL cells) is reported as 84% and the viability at 100 µM [1] is reported as 85%.

`CCOC(=O)N1CCC(n2cnc(-c3ccc(F)cc3)c2-c2ccnc3[nH]ccc23)CC1` [Preparative Example 70, Ethyl 4-(4-(4-fluorophenyl)-5-(1H-pyrrolo[2,3-b]pyridin-4-yl)-1H-imidazol-1-yl)piperidine-1-carboxylate] gave a viability at 100 µM (primary CLL cells) of 72% and a viability at 100 µM [1] of 11%.

With `CNC(=O)N1CCC(n2cnc(-c3ccc(F)cc3)c2-c2ccnc3[nH]ccc23)CC1` [Preparative Example 71, 4-(4-(4-fluorophenyl)-5-(1H-pyrrolo[2,3-b]pyridin-4-yl)-1H-imidazol-1-yl)-N-methylpiperidine-1-carboxamide] the viability at 100 µM (primary CLL cells) was 87% and the viability at 100 µM [1] was 87%.

Work on `CC(=O)N[C@H]1CC[C@@H](n2cnc(-c3ccc(F)cc3)c2-c2ccnc3[nH]ccc23)CC1` [Preparative Example 75, N-(cis-4-(4-(4-fluorophenyl)-5-(1H-pyrrolo[2,3-b]pyridin-4-yl)-1H-imidazol-1-yl)cyclohexyl)acetamide] yielded a viability at 100 µM (primary CLL cells) of 83% and a viability at 100 µM [1] of 66%.

For `Fc1ccc(-c2ncn(CCCOC(F)(F)F)c2-c2ccnc3[nH]ccc23)cc1` [Preparative Example 80], the viability at 100 µM (primary CLL cells) was 49% and the viability at 100 µM [1] was 42%.

`Fc1ccc(-c2ncn(Cc3cccs3)c2-c2ccnc3[nH]ccc23)cc1` [Preparative Example 84, 4-(4-(4-fluorophenyl)-1-(thiophen-2-ylmethyl)-1H-imidazol-5-yl)-1H-pyrrolo[2,3-b]pyridine] was tested, and the viability at 100 µM (primary CLL cells) was 48% and the viability at 100 µM [1] was 8%.

For `Fc1ccc(-c2ncn(Cc3ccc(OC(F)(F)F)cc3)c2-c2ccnc3[nH]ccc23)cc1` [Preparative Example 85], the viability at 100 µM (primary CLL cells) was 1% and the viability at 100 µM [1] was 4%.

Work on `Fc1ccc(-c2ncn(CCc3ccccc3)c2-c2ccnc3[nH]ccc23)cc1` [Preparative Example 87, 4-(4-(4-fluorophenyl)-1-phenethyl-1H-imidazol-5-yl)-1H-pyrrolo[2,3-b]pyridine] yielded a viability at 100 µM (primary CLL cells) of 10% and a viability at 100 µM [1] of 3%.

Compound `Fc1ccc(-c2ncn(CC3CCCCC3)c2-c2ccnc3[nH]ccc23)cc1` [Preparative Example 88, 4-(1-(cyclohexylmethyl)-4-(4-fluorophenyl)-1H-imidazol-5-yl)-1H-pyrrolo[2,3-b]pyridine] has a viability at 100 µM (primary CLL cells) of 15% and a viability at 100 µM [1] of 5%.

With `CN(C)[C@H]1C[C@@H](Cn2cnc(-c3ccc(F)cc3)c2-c2ccnc3[nH]ccc23)C1` [Preparative Example 89] the viability at 100 µM (primary CLL cells) was 59% and the viability at 100 µM [1] was 70%.

With `CN(C)[C@H]1CC[C@@H](n2cnc(-c3ccc(F)cc3)c2-c2ccnc3[nH]ccc23)CC1` [Preparative Example 90] the viability at 100 µM (primary CLL cells) was 23% and the viability at 100 µM [1] was 52%.

`CN(C)CCS(=O)(=O)N[C@H]1CC[C@@H](n2cnc(-c3ccc(F)cc3)c2-c2ccnc3[nH]ccc23)CC1` [Preparative Example 98, 2-(dimethylamino)-N-((1R,4s)-4-(4-(4-fluorophenyl)-5-(1H-pyrrolo[2,3-b]pyridin-4-yl)-1H-imidazol-1-yl)cyclohexyl)ethane-1-sulfonamide] was tested, and the viability at 100 µM (primary CLL cells) was 16% and the viability at 100 µM [1] was 3%.

Compound `CN(C)CCCS(=O)(=O)N[C@H]1CC[C@@H](n2cnc(-c3ccc(F)cc3)c2-c2ccnc3[nH]ccc23)CC1` [Preparative Example 100, 3-(dimethylamino)-N-((1R,4s)-4-(4-(4-fluorophenyl)-5-(1H-pyrrolo[2,3-b]pyridin-4-yl)-1H-imidazol-1-yl)cyclohexyl)propane-1-sulfonamide] has a viability at 100 µM (primary CLL cells) of 1% and a viability at 100 µM [1] of 0%.

`Cc1nc(Cn2cnc(-c3ccc(F)cc3)c2-c2ccnc3[nH]ccc23)cs1` [Preparative Example 108, 4-((4-(4-fluorophenyl)-5-(1H-pyrrolo[2,3-b]pyridin-4-yl)-1H-imidazol-1-yl)methyl)-2-methylthiazole] gave a viability at 100 µM (primary CLL cells) of 74% and a viability at 100 µM [1] of 82%.

For `Fc1ccc(-c2ncn(Cc3cc[nH]n3)c2-c2ccnc3[nH]ccc23)cc1` [Preparative Example 109, 4-(1-((1H-pyrazol-3-yl)methyl)-4-(4-fluorophenyl)-1H-imidazol-5-yl)-1H-pyrrolo[2,3-b]pyridine], the viability at 100 µM (primary CLL cells) was 87% and the viability at 100 µM [1] was 31%.

Compound `Fc1ccc(-c2ncn(CC3CNCCO3)c2-c2ccnc3[nH]ccc23)cc1` (centres unmarked) [Preparative Example 114, 2-((4-(4-fluorophenyl)-5-(1H-pyrrolo[2,3-b]pyridin-4-yl)-1H-imidazol-1-yl)methyl)morpholine] has a viability at 100 µM (primary CLL cells) of 78% and a viability at 100 µM [1] of 27%.

In the case of `CN(C)[C@H]1C[C@H](n2cnc(-c3ccc(F)cc3)c2-c2ccnc3[nH]ccc23)C1` [Preparative Example 124, (1S,3r)-3-(4-(4-fluorophenyl)-5-(1H-pyrrolo[2,3-b]pyridin-4-yl)-1H-imidazol-1-yl)-N,N-dimethylcyclobutan-1-amine], the viability at 100 µM (primary CLL cells) is reported as 55% and the viability at 100 µM [1] is reported as 53%.

Work on `CN(C)[C@H]1CC[C@H](n2cnc(-c3ccc(F)cc3)c2-c2ccnc3[nH]ccc23)CC1` [Preparative Example 125, (1S,4r)-4-(4-(4-fluorophenyl)-5-(1H-pyrrolo[2,3-b]pyridin-4-yl)-1H-imidazol-1-yl)-N,N-dimethylcyclohexan-1-amine] yielded a viability at 100 µM (primary CLL cells) of 28% and a viability at 100 µM [1] of 26%.

With `CN1CCC(Cn2cnc(-c3ccc(F)cc3)c2-c2ccnc3[nH]ccc23)C1` (centres unmarked) [Preparative Example 129, 4-(4-(4-fluorophenyl)-1-((1-methylpyrrolidin-3-yl)methyl)-1H-imidazol-5-yl)-1H-pyrrolo[2,3-b]pyridine] the viability at 100 µM (primary CLL cells) was 78% and the viability at 100 µM [1] was 86%.

`Fc1ccc(-c2ncn(C3CCCCC3)c2-c2ccnc3[nH]cc(Br)c23)cc1` [Preparative Example 134, 3-bromo-4-(1-cyclohexyl-4-(4-fluorophenyl)-1H-imidazol-5-yl)-1H-pyrrolo[2,3-b]pyridine] showed a viability at 100 µM (primary CLL cells) of 22% and a viability at 100 µM [1] of 1%.

In the case of `Fc1ccc(-c2nc(Br)n(C3CCCCC3)c2-c2ccnc3[nH]ccc23)cc1` [Preparative Example 135, 4-(2-bromo-1-cyclohexyl-4-(4-fluorophenyl)-1H-imidazol-5-yl)-1H-pyrrolo[2,3-b]pyridine], the viability at 100 µM (primary CLL cells) is reported as 9% and the viability at 100 µM [1] is reported as 0%.

`CSc1nc(-c2ccc(F)cc2)c(-c2ccnc3[nH]ccc23)n1C1CCCCC1` [Preparative Example 136, 4-(1-cyclohexyl-4-(4-fluorophenyl)-2-(methylthio)-1H-imidazol-5-yl)-1H-pyrrolo[2,3-b]pyridine] gave a viability at 100 µM (primary CLL cells) of 47% and a viability at 100 µM [1] of 0%.
